Measurements reported in patent US10787446B2 (GENENTECH, INC., priority 2015, dated 2020).

Biological target: T1, hNav1.7 and the β1 subunit (Homo sapiens, UniProt Q15858)
T1 construct: expressed in transfected cells
Assay: Tritiated compound competitive binding to membranes from cells heterologously expressing hNav1.7 and the β1 subunit (LBA)
Settings: competition with 100 pM [3H]compound, 18 h, room temperature; IC50 by 4 parameter logistic model
Outline: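 Membranes were incubated 18 h at room temperature with 100 pM [3H]-labelled NaV1.7 inhibitor and increasing test compound in 100 mM NaCl, 20 mM Tris HCl, pH 7.4. Bound radioligand was filtered on PEI-soaked GF/C, washed, and counted by scintillation. IC50 from a 4-parameter logistic fit of % inhibition.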

T1 sequence (Q15858 whole entry): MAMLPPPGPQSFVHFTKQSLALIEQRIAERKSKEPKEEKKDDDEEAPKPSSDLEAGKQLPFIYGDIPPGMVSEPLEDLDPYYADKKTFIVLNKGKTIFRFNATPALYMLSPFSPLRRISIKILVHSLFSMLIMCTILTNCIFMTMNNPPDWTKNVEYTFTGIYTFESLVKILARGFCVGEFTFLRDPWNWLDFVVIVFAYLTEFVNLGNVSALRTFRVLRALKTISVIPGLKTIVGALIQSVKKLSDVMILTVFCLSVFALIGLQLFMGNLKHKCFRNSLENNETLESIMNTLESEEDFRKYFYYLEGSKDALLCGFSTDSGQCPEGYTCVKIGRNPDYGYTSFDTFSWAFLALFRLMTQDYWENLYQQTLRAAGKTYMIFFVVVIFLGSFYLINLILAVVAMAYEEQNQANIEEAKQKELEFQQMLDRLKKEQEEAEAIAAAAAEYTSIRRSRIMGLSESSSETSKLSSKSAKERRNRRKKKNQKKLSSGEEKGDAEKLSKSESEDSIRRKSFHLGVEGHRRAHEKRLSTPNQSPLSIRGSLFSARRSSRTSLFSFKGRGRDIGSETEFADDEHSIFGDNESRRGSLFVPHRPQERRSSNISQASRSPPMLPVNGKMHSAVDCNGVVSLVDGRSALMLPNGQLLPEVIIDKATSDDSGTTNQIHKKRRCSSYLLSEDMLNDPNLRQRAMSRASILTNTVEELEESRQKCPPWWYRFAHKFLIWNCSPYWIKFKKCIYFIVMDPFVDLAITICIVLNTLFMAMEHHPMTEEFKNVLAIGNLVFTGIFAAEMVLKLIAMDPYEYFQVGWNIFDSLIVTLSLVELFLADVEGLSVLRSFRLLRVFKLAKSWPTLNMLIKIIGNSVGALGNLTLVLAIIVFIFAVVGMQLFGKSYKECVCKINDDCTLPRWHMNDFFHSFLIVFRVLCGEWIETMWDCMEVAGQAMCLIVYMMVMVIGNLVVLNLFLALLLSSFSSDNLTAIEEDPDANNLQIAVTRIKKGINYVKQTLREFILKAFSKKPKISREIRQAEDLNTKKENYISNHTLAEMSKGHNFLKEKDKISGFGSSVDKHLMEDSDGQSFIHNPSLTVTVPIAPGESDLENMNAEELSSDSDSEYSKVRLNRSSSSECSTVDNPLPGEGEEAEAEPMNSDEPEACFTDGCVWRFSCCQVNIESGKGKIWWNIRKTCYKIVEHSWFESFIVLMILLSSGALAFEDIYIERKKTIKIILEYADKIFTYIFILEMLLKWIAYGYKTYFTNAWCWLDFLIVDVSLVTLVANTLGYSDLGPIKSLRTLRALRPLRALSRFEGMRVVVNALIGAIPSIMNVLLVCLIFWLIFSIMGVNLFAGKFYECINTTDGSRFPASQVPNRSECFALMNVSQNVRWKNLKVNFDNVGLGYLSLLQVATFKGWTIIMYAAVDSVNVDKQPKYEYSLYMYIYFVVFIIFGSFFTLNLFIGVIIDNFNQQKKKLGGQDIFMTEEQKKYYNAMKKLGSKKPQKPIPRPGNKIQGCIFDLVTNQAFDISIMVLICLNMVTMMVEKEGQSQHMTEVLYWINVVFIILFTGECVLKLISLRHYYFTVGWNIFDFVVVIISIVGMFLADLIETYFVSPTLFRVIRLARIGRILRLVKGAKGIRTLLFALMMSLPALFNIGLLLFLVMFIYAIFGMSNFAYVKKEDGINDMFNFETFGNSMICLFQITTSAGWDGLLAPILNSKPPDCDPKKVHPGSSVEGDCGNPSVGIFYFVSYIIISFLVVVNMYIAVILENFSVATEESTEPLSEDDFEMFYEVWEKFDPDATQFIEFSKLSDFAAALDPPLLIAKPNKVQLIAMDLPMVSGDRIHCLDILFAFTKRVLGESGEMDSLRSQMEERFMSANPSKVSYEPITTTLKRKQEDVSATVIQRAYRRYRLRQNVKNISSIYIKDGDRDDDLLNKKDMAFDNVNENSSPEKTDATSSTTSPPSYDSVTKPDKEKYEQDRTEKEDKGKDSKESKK
T1 sequence (Q07699 19-218 partner): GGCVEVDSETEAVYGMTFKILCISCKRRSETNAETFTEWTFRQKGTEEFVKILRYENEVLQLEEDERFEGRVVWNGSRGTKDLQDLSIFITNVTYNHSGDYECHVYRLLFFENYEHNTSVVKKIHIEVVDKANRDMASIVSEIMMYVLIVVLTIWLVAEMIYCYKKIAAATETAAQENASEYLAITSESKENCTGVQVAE

Structure (SMILES) | Nav1.7 (LBA)
O=S(=O)(Nc1ncns1)c1ccc(CN2CCCCC2c2ccccc2)c(Cl)c1 (centres unmarked) [Example 63, 3-chloro-4-((2-phenylpiperidin-1-yl)methyl)-N-(1,2,4-thiadiazol-5-yl)benzenesulfonamide] | 0.609 µM
O=S(=O)(Nc1ncns1)c1ccc(CN2CCCC[C@@H]2c2ccccc2)c(Cl)c1 [Example 64, (R)-3-chloro-4-((2-phenylpiperidin-1-yl)methyl)-N-(1,2,4-thiadiazol-5-yl)benzenesulfonamide] | 0.965 µM
O=S(=O)(Nc1ncns1)c1ccc(CN2CCCC[C@H]2c2ccccc2)c(Cl)c1 [Example 65, (S)-3-chloro-4-((2-phenylpiperidin-1-yl)methyl)-N-(1,2,4-thiadiazol-5-yl)benzenesulfonamide] | 5.51 µM
O=S(=O)(Nc1ncns1)c1cc(Cl)c(CN2CCCCC2c2ccccc2)cc1F (centres unmarked) [Example 68, 5-chloro-2-fluoro-4-((2-phenylpiperidin-1-yl)methyl)-N-(1,2,4-thiadiazol-5-yl)benzenesulfonamide] | 0.334 µM
O=S(=O)(Nc1ncns1)c1cc(Cl)c(CN2CCCCC2c2ccncc2)cc1F (centres unmarked) [Example 69, 5-chloro-2-fluoro-4-((2-(pyridin-4-yl)piperidin-1-yl)methyl)-N-(1,2,4-thiadiazol-5-yl)benzenesulfonamide] | 0.21 µM
O=S(=O)(Nc1ncns1)c1cc(Cl)c(CN2CCCC[C@H]2c2cccnc2)cc1F [Example 70, (S)-5-chloro-2-fluoro-4-((2-(pyridin-3-yl)piperidin-1-yl)methyl)-N-(1,2,4-thiadiazol-5-yl)benzenesulfonamide] | 0.175 µM
O=S(=O)(Nc1cccc(F)n1)c1ccc(CN2CCCC[C@H]2c2ccccc2)c(Cl)c1 [Example 73, (S)-3-chloro-N-(6-fluoropyridin-2-yl)-4-((2-phenylpiperidin-1-yl)methyl)-benzenesulfonamide] | 6.8 µM
O=S(=O)(Nc1cccc(F)n1)c1ccc(CN2CCCC[C@@H]2c2ccccc2)c(Cl)c1 [Example 74, (R)-3-chloro-N-(6-fluoropyridin-2-yl)-4-((2-phenylpiperidin-1-yl)methyl)-benzenesulfonamide] | 2.67 µM
O=S(=O)(Nc1ncns1)c1ccc2c(c1)OCCC2N1CCOC[C@H]1c1ccccc1 (stereo partly drawn) [Example 75, 4-((R)-3-phenylmorpholino)-N-(1,2,4-thiadiazol-5-yl)chromane-7-sulfonamide] | 0.0859 µM
CN(Cc1ccccc1)[C@H]1CCOc2cc(S(=O)(=O)Nc3ncns3)c(F)cc21 [Example 89, (S)-4-(benzyl(methyl)amino)-6-fluoro-N-(1,2,4-thiadiazol-5-yl)chromane-7-sulfonamide] | 0.096 µM
O=S(=O)(Nc1ncns1)c1ccc2c(c1)OCC[C@@H]2N1CC[C@@H](C(F)(F)F)C[C@H]1c1ccc(F)c(F)c1 [Example 106, (S)-4-((2S,4R)-2-(3,4-difluorophenyl)-4-(trifluoromethyl)piperidin-1-yl)-N-(1,2,4-thiadiazol-5-yl)chroman-7-sulfonamide] | 0.0016 µM
O=S(=O)(Nc1ncns1)c1ccc2c(c1)OCC[C@@H]2N1CC[C@@H](C(F)(F)F)C[C@@H]1c1ccc(F)c(F)c1 [Example 107, (S)-4-((2R,4R)-2-(3,4-difluorophenyl)-4-(trifluoromethyl)piperidin-1-yl)-N-(1,2,4-thiadiazol-5-yl)chroman-7-sulfonamide] | 2.0 µM

More lines, now with the values ahead:

Nav1.7 (LBA) | Structure (SMILES)
0.337 µM | O=S(=O)(Nc1ncns1)c1cc(F)c(CN2CCC3(CC3)C[C@H]2c2ccccc2)cc1F [Example 110, (S)-2,5-difluoro-4-((5-phenyl-6-azaspiro[2.5]octan-6-yl)methyl)-N-(1,2,4-thiadiazol-5-yl)benzenesulfonamide]
4.21 µM | O=S(=O)(Nc1ncns1)c1cc(F)c(CN2CC[C@H](OC(F)(F)F)C[C@@H]2c2ccccc2)cc1F [Example 112, 2,5-Difluoro-4-(((2R,4S)-2-phenyl-4-(trifluoromethoxy)piperidin-1-yl)methyl)-N-(1,2,4-thiadiazol-5-yl)benzenesulfonamide]
9.65 µM | O=S(=O)(Nc1ncns1)c1cc(F)c(CN2CC[C@@H](O)C[C@H]2c2ccccc2)cc1F [Example 114, 2,5-Difluoro-4-(((2S,4R)-4-hydroxy-2-phenylpiperidin-1-yl)methyl)-N-(1,2,4-thiadiazol-5-yl)benzenesulfonamide]
2.26 µM | Nc1[nH]ncc1C1CCCCN1Cc1cc(F)c(S(=O)(=O)Nc2ncns2)cc1F (centres unmarked) [Example 118, 4-((2-(5-Amino-1H-pyrazol-4-yl)piperidin-1-yl)methyl)-2,5-difluoro-N-(1,2,4-thiadiazol-5-yl)benzenesulfonamide]
0.0181 µM | N#Cc1cc(S(=O)(=O)Nc2ncns2)ccc1CN1CC[C@@H](C(F)(F)F)C[C@H]1c1ccccc1 [Example 119, 3-Cyano-4-(((2S,4R)-2-phenyl-4-(trifluoromethyl)piperidin-1-yl)methyl)-N-(1,2,4-thiadiazol-5-yl)benzenesulfonamide]
0.376 µM | CN(Cc1ccccc1)[C@H]1CCOc2cc(S(=O)(=O)Nc3ncns3)ccc21 [Example 120, (S)-4-(benzyl(methyl)amino)-N-(1,2,4-thiadiazol-5-yl)chroman-7-sulfonamide]
5.36 µM | N#CC1CCN([C@H]2CCOc3cc(S(=O)(=O)Nc4ncns4)ccc32)CC1 [Example 147, (S)-4-(4-cyanopiperidine-1-yl)-N-(1,2,4-thiadiazol-5-yl)chromane-7-sulfonamide]
8.6 µM | CC1(C#N)CCN([C@H]2CCOc3cc(S(=O)(=O)Nc4ncns4)ccc32)CC1 [Example 149, (S)-4-(4-cyano-4-methylpiperidin-1-yl)-N-(1,2,4-thiadiazol-5-yl)chromane-7-sulfonamide]
1.44 µM | O=S(=O)(Nc1ncns1)c1ccc2c(c1)OCC[C@@H]2N1CCC(C(F)F)CC1 [Example 150, (S)-4-(4-(difluoromethyl)piperidin-1-yl)-N-(1,2,4-thiadiazol-5-yl)chromane-7-sulfonamide]
5.5 µM | O=S(=O)(Nc1ncns1)c1ccc2c(c1)OCC[C@@H]2N1CCC2(CC1)COC2 [Example 153, (S)-4-(2-oxa-7-azaspiro[3.5]nonan-7-yl)-N-(1,2,4-thiadiazol-5-yl)chromane-7-sulfonamide]
4.52 µM | N#CC1CC12CCN([C@H]1CCOc3cc(S(=O)(=O)Nc4ncns4)ccc31)CC2 (some centres unmarked) [Example 154]
0.18 µM | Cn1nccc1[C@@H]1C[C@H](C(F)(F)F)CCN1[C@@H]1CCOc2cc(S(=O)(=O)Nc3nccs3)c(F)cc21 [Example 159]
0.442 µM | Cn1nccc1[C@H]1C[C@@H](C(F)(F)F)CCN1[C@@H]1CCOc2cc(S(=O)(=O)Nc3nccs3)c(F)cc21 [Example 160]
0.00853 µM | CS(=O)(=O)[C@@H]1CCN([C@H]2CCOc3cc(S(=O)(=O)Nc4ncns4)ccc32)[C@H](c2ccc(F)cc2)C1 [Example 161, (S)-4-((2S,4R)-2-(4-fluorophenyl)-4-(methylsulfonyl)piperidin-1-yl)-N-(1,2,4-thiadiazol-5-yl)chroman-7-sulfonamide]
